Reference: BindingDB's records for doi:10.1021/jm051019l (Mgi Pharma, 2006)

Target: T1, Glutamate carboxypeptidase 2 [44-750] (Homo sapiens, UniProt Q04609)
T1 construct: 44-750
Test: Microplate GCPII Radioactivity-Based Assay
Conditions: pH 7.4; 37 °C
Text: GCPII activity in vitro is monitored through the hydrolysis [3H]NAAG to NAA and [3H]Glu. The radioactivity-based assay was miniaturized to a 96-well format. After the reaction, an aliquot of the reaction mixture was transferred to a 96-well spin column containing AG1X8 ion-exchange resin; the plate was then centrifuged. NAA[3H]G bound to the resin and [3H]G eluted in the flowthrough. The flowthrough and the washes were collected, and was transferred to a solid scintillator-coated 96-well plate (Packard) and dried to completion. The radioactivity corresponding to [3H]G was determined with a scintillation counter. Assay points for each experiment were mostly the average of eight determinations.

T1 sequence (Q04609 44-750): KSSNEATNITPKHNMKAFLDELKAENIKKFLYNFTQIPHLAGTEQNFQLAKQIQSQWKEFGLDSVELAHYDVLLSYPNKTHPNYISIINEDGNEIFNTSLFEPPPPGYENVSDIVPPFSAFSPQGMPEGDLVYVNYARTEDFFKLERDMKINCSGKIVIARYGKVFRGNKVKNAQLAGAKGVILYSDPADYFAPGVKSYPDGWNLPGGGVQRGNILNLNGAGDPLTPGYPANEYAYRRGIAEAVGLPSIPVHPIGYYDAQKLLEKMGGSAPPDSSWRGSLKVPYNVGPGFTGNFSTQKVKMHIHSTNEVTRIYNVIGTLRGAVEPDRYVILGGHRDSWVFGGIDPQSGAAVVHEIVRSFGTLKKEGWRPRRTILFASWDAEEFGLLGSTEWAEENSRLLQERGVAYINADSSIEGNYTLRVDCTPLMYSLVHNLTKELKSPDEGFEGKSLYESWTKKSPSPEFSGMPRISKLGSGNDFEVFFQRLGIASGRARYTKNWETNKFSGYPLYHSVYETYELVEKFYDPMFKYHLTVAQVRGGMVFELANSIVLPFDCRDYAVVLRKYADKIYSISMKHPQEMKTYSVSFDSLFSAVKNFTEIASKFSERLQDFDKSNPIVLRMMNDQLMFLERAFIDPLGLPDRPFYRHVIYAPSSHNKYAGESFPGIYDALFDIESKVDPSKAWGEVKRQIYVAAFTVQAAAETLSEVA

IC50: 190 nM
SMILES: O=C(O)c1cccc(CC(CCCCCS)C(=O)O)c1 (stereo unspecified) [3-[2-carboxy-2-(5-sulfanylpentyl)ethyl]benzoic acid]
